The results in this text go back to ChEMBL document CHEMBL6096682, “Discovery of D-Ring-Contracted Artemisinin as a Potent Hydrophobic Tag for Targeted Protein Degradation” (J Med Chem, 2025).

Each structure is given as a SMILES string. The source made the active and inactive calls. The rule behind the calls is not given here.

Usually IC50 stands for the point on the concentration scale where inhibition reaches its midpoint.

Test [1] concerns MCF7. The experiment in a line: Antiproliferative activity against human MCF7 cells assessed as reduction in cell viability incubated for 48 hrs by MTT assay. Format: functional, cell-based. The conditions noted are these: MCF7, 48 h. In general terms: Tetrazolium dyes change colour on reduction, which living cells bring about.
Test [2] has as its target Cyclin-dependent kinase 6 (Homo sapiens) (UniProt Q00534). The experiment in a line: HyT degrader activity at CDK6 in human MCF7 cells assessed as induction of CDK6 degradation at 0.1 to 10 uM incubated for 24 hrs by immunoblot analysis. The class given is cell-based. The conditions noted are these: dose 0.1-10 µM.
Test [3] has the same target. The experiment in a line: HyT degrader activity at CDK6 in human MCF7 cells assessed as induction of CDK6 degradation at 10 uM incubated for 24 hrs by immunoblot analysis. The class given is cell-based. On the technique in general: A western blot detects proteins with antibodies after separation by electrophoresis.
Test [4] relates to MCF7. In words: Antiproliferative activity against human MCF7 cells assessed as reduction in cell viability incubated for 48 hrs by MTT assay relative to control. The class given is functional.
Test [5] deals with MCF7. In words: Antiproliferative activity against human MCF7 cells overexpressing EGFR assessed as reduction in cell viability incubated for 48 hrs by MTT assay relative to control. The class given is functional.
Test [6] addresses T1, Estrogen receptor (Homo sapiens) (UniProt P03372).
T1 sequence (whole entry): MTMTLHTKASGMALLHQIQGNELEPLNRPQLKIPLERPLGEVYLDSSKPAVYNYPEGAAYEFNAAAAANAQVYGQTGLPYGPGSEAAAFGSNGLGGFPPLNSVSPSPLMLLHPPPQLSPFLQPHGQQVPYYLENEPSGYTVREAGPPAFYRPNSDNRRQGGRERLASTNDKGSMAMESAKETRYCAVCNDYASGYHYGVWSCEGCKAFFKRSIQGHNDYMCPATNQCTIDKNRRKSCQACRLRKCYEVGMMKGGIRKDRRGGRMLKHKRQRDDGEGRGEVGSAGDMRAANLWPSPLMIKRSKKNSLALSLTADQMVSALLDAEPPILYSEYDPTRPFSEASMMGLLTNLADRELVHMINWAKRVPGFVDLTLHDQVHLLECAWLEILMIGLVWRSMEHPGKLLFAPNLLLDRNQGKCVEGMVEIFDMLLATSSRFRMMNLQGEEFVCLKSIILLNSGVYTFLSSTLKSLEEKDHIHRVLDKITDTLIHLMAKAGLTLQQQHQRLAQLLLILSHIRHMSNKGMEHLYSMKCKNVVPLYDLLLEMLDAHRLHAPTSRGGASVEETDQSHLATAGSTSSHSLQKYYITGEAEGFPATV
The experiment in a line: HyT degrader activity at ER-alpha in human MCF7 cells assessed as induction of ER-alpha degradation by measuring decrease in ER-alpha level at 10 uM incubated for 48 hrs by western blot analysis. The class given is cell-based. Also noted: scale not given: the % may be the effect or the level left.

Test [7] concerns MCF7. The experiment in a line: Antiproliferative activity against human MCF7 cells overexpressing ER-alpha Y537S mutant assessed as reduction in cell viability incubated for 48 hrs by MTT assay relative to control. Format: functional.
The subject of test [8] is MCF7. In words: Antiproliferative activity against human MCF7 cells overexpressing EGFR assessed as reduction in cell viability incubated for 48 hrs by MTT assay. Format: functional, cell-based. The conditions noted are these: MCF7, 48 h.
The target in test [9] is T1, Estrogen receptor (Homo sapiens). The experiment in a line: HyT degrader activity at ER-alpha in human MCF7 cells assessed as induction of ER-alpha degradation by measuring decrease in ER-alpha level at 10 uM incubated for 48 hrs followed by drug wash-out and measured after 24 hrs by western blot analysis. The class given is cell-based.
Test [10] relates to MCF7. The experiment in a line: Antiproliferative activity against human MCF7 cells overexpressing ER-alpha Y537S mutant assessed as reduction in cell viability incubated for 48 hrs by MTT assay. The class given is functional, cell-based. The conditions noted are these: MCF7, 48 h.
In test [11] the test system is MCF7. In words: Antitumor activity against human MCF7 cells xenografted in Balb/c mouse assessed as inhibition of tumor growth at 5 mg/kg, iv administered every 3 days and measured for 21 days. Format: functional. The conditions noted are these: MCF7, 504 h, time 21 day, read-out: TGI. In general terms: In xenograft studies the graft and the host belong to different species.

In test [12] the target is Histone deacetylase 1 (Homo sapiens) (UniProt Q13547). The experiment in a line: HyT degrader activity at HDAC1 in human MCF7 cells assessed as induction of HDAC1 degradation at 10 uM incubated for 24 hrs by immunoblot analysis. Format: cell-based.
For test [13], the target named is Histone deacetylase 2 (Homo sapiens) (UniProt Q92769). The experiment in a line: HyT degrader activity at HDAC2 in human MCF7 cells assessed as induction of HDAC2 degradation by measuring decrease in HDAC2 level at 0.1 to 50 uM incubated for 24 hrs by immunoblot analysis. The class given is cell-based. The conditions noted are these: dose 0.1-50 µM.
In test [14] the target is Histone deacetylase 1 (Homo sapiens) (UniProt Q13547). The experiment in a line: HyT degrader activity at HDAC1 in human MCF7 cells assessed as induction of HDAC1 degradation by measuring decrease in HDAC1 level at 0.1 to 50 uM incubated for 24 hrs by immunoblot analysis. The class given is cell-based. The conditions noted are these: dose 0.1-50 µM.
Test [15] deals with T2, Histone deacetylase (Homo sapiens) (UniProt Q13547+O15379+Q9UBN7+Q92769+Q9UQL6+Q8WUI4+Q9BY41+Q96DB2+P56524+Q9UKV0+Q969S8). In words: HyT degrader activity at HDAC in human MCF7 cells assessed as induction of HDAC degradation by measuring increase in acetylated alpha-tubulin level at 0.1 to 50 uM incubated for 24 hrs by immunoblot analysis. The class given is cell-based. The conditions noted are these: dose 0.1-50 µM.

For test [16], the target named is T3, Protein deacetylase HDAC6 (Homo sapiens) (UniProt Q9UBN7).
T3 sequence (whole entry): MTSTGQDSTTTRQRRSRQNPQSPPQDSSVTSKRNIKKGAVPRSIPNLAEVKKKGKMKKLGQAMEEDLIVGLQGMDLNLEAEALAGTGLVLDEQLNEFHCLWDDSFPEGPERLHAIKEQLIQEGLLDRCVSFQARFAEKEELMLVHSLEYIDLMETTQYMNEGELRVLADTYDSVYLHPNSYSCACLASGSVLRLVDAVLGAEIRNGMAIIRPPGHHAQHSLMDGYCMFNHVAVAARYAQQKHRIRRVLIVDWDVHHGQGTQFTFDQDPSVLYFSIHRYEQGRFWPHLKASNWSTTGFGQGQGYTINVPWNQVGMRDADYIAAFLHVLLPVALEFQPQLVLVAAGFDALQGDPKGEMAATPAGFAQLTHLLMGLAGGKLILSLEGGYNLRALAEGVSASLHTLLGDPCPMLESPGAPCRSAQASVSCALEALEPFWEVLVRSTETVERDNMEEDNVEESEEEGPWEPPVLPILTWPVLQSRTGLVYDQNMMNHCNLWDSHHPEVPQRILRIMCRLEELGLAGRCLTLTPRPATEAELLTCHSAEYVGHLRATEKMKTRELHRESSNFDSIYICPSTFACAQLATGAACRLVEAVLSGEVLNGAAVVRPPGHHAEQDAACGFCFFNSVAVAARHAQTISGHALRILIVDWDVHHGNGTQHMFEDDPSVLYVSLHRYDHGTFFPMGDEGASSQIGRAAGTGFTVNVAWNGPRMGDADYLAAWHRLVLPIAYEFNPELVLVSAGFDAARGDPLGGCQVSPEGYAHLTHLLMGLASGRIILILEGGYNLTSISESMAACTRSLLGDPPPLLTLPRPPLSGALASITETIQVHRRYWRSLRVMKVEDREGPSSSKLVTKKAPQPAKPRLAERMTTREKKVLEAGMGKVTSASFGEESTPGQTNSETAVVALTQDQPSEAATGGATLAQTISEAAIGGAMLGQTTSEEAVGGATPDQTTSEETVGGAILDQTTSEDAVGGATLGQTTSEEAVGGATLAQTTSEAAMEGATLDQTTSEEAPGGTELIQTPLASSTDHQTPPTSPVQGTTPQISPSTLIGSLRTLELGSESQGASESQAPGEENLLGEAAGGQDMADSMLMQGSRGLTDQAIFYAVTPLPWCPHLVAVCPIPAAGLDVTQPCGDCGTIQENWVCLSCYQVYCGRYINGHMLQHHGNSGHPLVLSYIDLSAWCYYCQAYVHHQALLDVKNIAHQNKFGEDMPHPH
The experiment in a line: HyT degrader activity at HDAC6 in human MCF7 cells assessed as induction of HDAC6 degradation by measuring decrease in HDAC6 level at 0.1 to 10 uM incubated for 24 hrs by immunoblot analysis. Format: cell-based. The conditions noted are these: dose 0.1-10 µM.

In test [17] the target is T2, Histone deacetylase (Homo sapiens). In words: HyT degrader activity at HDAC in human MCF7 cells assessed as induction of HDAC degradation by measuring increase in acetylated histone H3 level at 0.1 to 50 uM incubated for 24 hrs by immunoblot analysis. The class given is cell-based. The conditions noted are these: dose 0.1-50 µM.

Histone deacetylase 1 (Homo sapiens), sequence (Q13547 whole entry): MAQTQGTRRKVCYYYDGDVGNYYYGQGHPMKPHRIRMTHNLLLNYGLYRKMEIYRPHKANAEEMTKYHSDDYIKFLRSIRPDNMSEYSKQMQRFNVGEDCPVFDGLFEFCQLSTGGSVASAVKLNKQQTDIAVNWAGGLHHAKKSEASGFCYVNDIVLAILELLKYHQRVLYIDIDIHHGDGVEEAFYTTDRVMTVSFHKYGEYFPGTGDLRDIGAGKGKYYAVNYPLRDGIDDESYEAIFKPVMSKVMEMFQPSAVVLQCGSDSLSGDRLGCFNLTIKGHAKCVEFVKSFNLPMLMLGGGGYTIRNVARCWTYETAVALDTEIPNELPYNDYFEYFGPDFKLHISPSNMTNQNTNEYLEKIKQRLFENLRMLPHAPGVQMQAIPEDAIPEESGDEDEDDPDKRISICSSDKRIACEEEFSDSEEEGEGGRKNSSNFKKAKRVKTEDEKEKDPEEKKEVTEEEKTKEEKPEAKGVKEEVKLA
Cyclin-dependent kinase 6 (Homo sapiens), sequence (Q00534 whole entry): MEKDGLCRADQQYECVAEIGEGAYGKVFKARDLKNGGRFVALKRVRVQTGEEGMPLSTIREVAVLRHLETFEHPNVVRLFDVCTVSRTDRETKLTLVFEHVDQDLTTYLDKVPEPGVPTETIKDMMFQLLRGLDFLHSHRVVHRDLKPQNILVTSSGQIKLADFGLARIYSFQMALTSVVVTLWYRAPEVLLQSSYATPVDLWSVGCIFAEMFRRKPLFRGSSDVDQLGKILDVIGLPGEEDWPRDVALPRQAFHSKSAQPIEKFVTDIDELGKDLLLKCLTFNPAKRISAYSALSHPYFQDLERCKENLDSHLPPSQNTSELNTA
Histone deacetylase 2 (Homo sapiens), sequence (Q92769 whole entry): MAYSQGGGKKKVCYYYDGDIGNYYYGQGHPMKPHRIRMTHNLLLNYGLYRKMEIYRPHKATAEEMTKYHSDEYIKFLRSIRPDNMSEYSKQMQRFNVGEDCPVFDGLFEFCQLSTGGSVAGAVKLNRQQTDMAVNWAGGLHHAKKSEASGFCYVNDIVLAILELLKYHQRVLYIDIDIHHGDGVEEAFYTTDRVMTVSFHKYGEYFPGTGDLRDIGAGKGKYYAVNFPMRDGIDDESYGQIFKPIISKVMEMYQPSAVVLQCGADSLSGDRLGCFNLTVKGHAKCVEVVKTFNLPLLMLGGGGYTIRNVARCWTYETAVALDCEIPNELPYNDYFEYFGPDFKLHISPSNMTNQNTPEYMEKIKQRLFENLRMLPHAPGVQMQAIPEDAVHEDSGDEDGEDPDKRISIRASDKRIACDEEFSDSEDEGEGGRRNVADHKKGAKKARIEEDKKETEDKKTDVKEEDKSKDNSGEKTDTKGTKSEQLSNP

With `CC(=O)c1c(C)c2cnc(NCCCNC(=O)[C@@]3(C)OC4O[C@@]5(C)CCC6[C@H](C)CCC3[C@@]46OO5)nc2n(C2CCCC2)c1=O` (single isomer, unassigned), the IC50 with MCF7 [1] was 5 µM. For the same molecule, the outcome in test [2] was Active. Moreover, in test [3], the Activity is 73%.

With `C[C@@H]1CCC2[C@]34OO[C@](C)(CCC13)O[C@@H]4O[C@]2(C)C(=O)NCCCCCCOc1ccc(C(=O)c2c(-c3ccc(O)cc3)sc3cc(O)ccc23)cc1` (stereo partly specified), the IC50 with MCF7 [1] is 45.7 µM. For the same molecule, the “inhibition (INH)” value with MCF7 [4] is 57.1%.

Regarding `O=C(c1ccc(OCCCNC(=O)C23CC4CC(CC(C4)C2)C3)cc1)c1c(-c2ccc(O)cc2)sc2cc(O)ccc12`, the 50% inhibitory concentration (IC50) in the test with MCF7 [1] was 9.54 µM; with MCF7 [8], 16 µM; with MCF7 [10], above 50 µM. The “inhibition (INH)” value was 57.9% in the test on MCF7 [5], 41.7% in the test with MCF7 [7] and 70.8% in the test with MCF7 [4]. Further, in test [6], the Activity came to 77.5%. Moreover, the outcome in [9] was Active.

On to `O=C(c1ccc(OCCN2CCCCC2)cc1)c1c(-c2ccc(O)cc2)sc2cc(O)ccc12` [RALOXIFENE], for which, in the test on MCF7 [11], the inhibition in vivo at 5 mg/kg is 68.8%.

On to `C[C@]12CC[C@@H]3c4ccc(O)cc4C[C@@H](CCCCCCCCC[S+]([O-])CCCC(F)(F)C(F)(F)F)[C@H]3[C@@H]1CC[C@@H]2O` (stereo partly specified) [FULVESTRANT], for which, in the test on MCF7 [11], the inhibition in vivo at 5 mg/kg came out at 87%.

As to `C[C@@H]1CCC2[C@]34OO[C@](C)(CCC13)O[C@@H]4O[C@]2(C)C(=O)NCCCCOc1ccc(C(=O)c2c(-c3ccc(O)cc3)sc3cc(O)ccc23)cc1` (stereo partly specified), in the test with MCF7 [1], the IC50 amounted to 11.4 µM. For the same molecule, the “inhibition (INH)” value in the test with MCF7 [4] stood at 63.5%.

`C[C@@H]1CCC2[C@]34OO[C@](C)(CCC13)OC4O[C@]2(C)C(=O)NCCOc1ccc(C(=O)c2c(-c3ccc(O)cc3)sc3cc(O)ccc23)cc1` (single isomer, unassigned): in the test on MCF7 [1], the half-inhibitory concentration (IC50) is above 100 µM. In the test on MCF7 [4], the “inhibition (INH)” value was 42.6%.

Regarding `C[C@@H]1CCC2[C@]34OO[C@](C)(CCC13)OC4O[C@]2(C)C(=O)NCCCC(=O)Nc1ccc(NC(=O)CCCCCCC(=O)NO)cc1` (single isomer, unassigned), in the test on MCF7 [1], the IC50 is 5.26 µM. The Activity in [12] was 84%. Also, the result in test [13], in test [14], in [15], in test [16] and in test [17] was Active.
